Results on seven compounds are retold here after US20260256763A1, “Aromatic Amide Derivative, And Preparation Method Therefor And Use Thereof” (Zhejiang Hisun Pharmaceutical Co., Ltd., priority 2023, published 2026).

For one data set, the target named is T1, recombinant human KIF18A (Homo sapiens, UniProt Q8NI77).
T1 construct: purchased GenScript
The data set can be described thus: Inhibition on KIF18A enzyme activity (ADP-Glo). It counts as biochemical. Particulars: recombinant human KIF18A 100 nM, ATP 60 μM. As for the experimental part: Inhibition degrees of the compounds of the present invention on recombinant human KIF18A enzyme activity in vitro were determined by the following method. An ADP-Glo™ Kinase Assay kit (article number V9102) from Promega Company was used in this method. Detailed experimental operation can be referred to the instruction of the kit.
The reaction was carried out in a 384-well microplate. The test compound and the recombinant human KIF18A protein (final concentration of 100 nM, entrusted to GenScript for expression) were added into the wells and incubated at room temperature for 20 minutes, and subsequently, ATP solution (component V915A from the ADP-Glo™ Kinase Assay kit, final concentration of 60 μM) was added to the reaction solution and the obtained system was incubated at room temperature for 20 minutes. Subsequently, 5 μL of ADP-Glo Reagent was added to the reaction system and the obtained system was incubated at room temperature for 50 minutes. Then, 10 μL of Kinase Detection Reagent was added to the reaction system, and the obtained system was incubated at room temperature for 30 minutes. After the incubation was ended, a chemiluminiscence intensity value of each well was determined by a microplate reader in a Luminescence mode.

Data set [1] in a line: Pharmacokinetic testing in mice. Format: in vivo. Particulars: male, mouse, ICR mice, plasma. As for the experimental part: ICR mice were taken as test animals, and intragastrically administered with a control compound AMG650 and compounds 1, 18 and 29 of the present invention, and then drug concentrations in plasma at different moments were determined by an LC/MS/MS method, so as to study pharmacokinetic characteristics of the compounds of the present invention in the mice.
Control compound AMG650, and Compounds 1, 18 and 29.
ICR mice, male, 27.3-30.3 g, purchased from Vital River Laboratory Animal Technology Co., Ltd.
A proper amount of to-be-tested compound was weighed, proper amounts of DMA (N,N-dimethylacetamide), CrEL (polyoxyethylene 35 castor oil) and 5% GS (5% glucose injection) were added in sequence, and the obtained system was evenly mixed by ultrasonic vortex to prepare a 1 mg/mL preparation, wherein DMA, CrEL and 5% GS=10:10:80 (v:v:v).
ICR mice in each to-be-tested compound injection group (9 mice in each group) were fasted overnight and then intragastrically administered with the compound (PO, an administration dosage of the compound was 10 mg/kg and an administration volume of the compound was 10 mL/kg), and were fed 4 hours after administration.
0.25 hours, 0.5 hours, 1 hour, 2 hours, 4 hours, 8 hours, 10 hours and 24 hours before and after administration, about […] of blood was collected through an orbit, and a complete blood sample was placed in an EDTA-K2-containing anticoagulation tube. The collected blood sample was placed on ice, and plasma was centrifugally separated (centrifugation conditions: 1500 g, 10 minutes). The collected plasma was stored at −40~−20° C. before analysis.
A content of the to-be-tested compound in the plasma of the mice after intragastric administration was determined by LC-MS/MS.

The test system of data set [2] is OVCAR-3 human ovarian adenocarcinoma tumor fragment xenograft. Briefly: Pharmacodynamic testing in OVCAR-3 tumor fragment xenograft model. Format: in vivo, BALB/c nude mice. As to conditions: 16 days after administration; for Tumor volume (x ± S): mean ± standard error, in mm³. How it is done:
An anti-tumor effect of Compound 1 of the present invention in a BALB/c nude mouse animal model with subcutaneous OVCAR-3 human ovarian adenocarcinoma tumor fragment xenograft was evaluated.
BALB/c nude mice, female, 6-7 weeks old, purchased from Jiangsu Gempharmatech Biotechnology Co., Ltd.
Mice in a solvent control group were given DMA:CrEL:5% GS=10:10:80 (v:v:v).
AMG650: a proper amount of AMG-650 was weighed, proper amounts of DMA, CrEL and 5% GS were added in sequence, and the obtained system was evenly mixed by ultrasonic vortex to prepare 0.8 mg/mL and 0.4 mg/mL preparations respectively, wherein DMA, CrEL and 5% GS=10:10:80 (v:v:v).
Compound 1: a proper amount of Compound 1 was weighed, proper amounts of DMA, CrEL and 5% GS were added in sequence, and the obtained system was evenly mixed by ultrasonic vortex to prepare 0.8 mg/mL and 0.4 mg/mL preparations respectively, wherein DMA, CrEL and 5% GS=10:10:80 (v:v:v).
An appropriate OVCAR-3 tumor-bearing animal was selected, a 1 mm×1 mm×1 mm OVCAR-3 tumor fragment was acquired aseptically and placed into normal saline for later use, which was used for subcutaneous tumor inoculation in a right side of back of the BALB/c nude mice.
About 1 mm×1 mm×1 mm OVCAR-3 tumor fragment was subcutaneously inoculated in the right side of back of the female BALB/c nude mice. When an average tumor volume reached about 100-250 mm^3, the mice were randomly grouped according to the tumor size, with 6 mice in each group.
Animals in each group were given the test compound once per day according to an animal weight at a fixed time every day by oral administration (po), the animals started to be administered with the test compound for the first time on the day of grouping for 22 consecutive days, and the animal weight was recorded every day. • The 1st group (G1) was a solvent control group; • The 2nd group (G2) and the 3rd group (G3) were orally administered with AMG-650 at administration dosages of 8 mg/kg and 4 mg/kg respectively once per day (QD); and • The 4th group (G4) and the 5th group (G5) were orally administered with Compound 1 at administration dosages of 8 mg/kg and 4 mg/kg respectively once per day (QD).
Tumor formation at an inoculation site of the animals in each group was observed, and a tumor volume was measured twice per week, and calculated according to the following formula: • a tumor volume (TV), a relative tumor volume (RTV), a relative tumor proliferation rate (T/C) and a relative tumor inhibition rate (TGI) were calculated according to the following formulas:
TV (tumor volume)=½×a×b^2, wherein a and b respectively represented a tumor length and a tumor width; (1)
RTV (relative tumor volume)=Vt/V0, wherein V0 was a tumor volume measured at the time of grouping, and Vt was a tumor volume in each measurement; (2)
T/C (%)=TRTV/CRTV×100%, wherein TRTV was RTV of a treatment group, and CRTV was RTV of a solvent control group; and (3)
TGI %=(1−T/C)×100%, wherein T and C were relative tumor volumes of the treatment group and the solvent control group at a specific time point respectively. (4)

A further data set concerns HT-29 cells. The data set can be described thus: Inhibition on HT-29 cell proliferation (CellTiter-Glo). Format: cell-based. Particulars: Homo sapiens, HT-29 cells (TP53 R273H mutation), 120 hours. How it is done: Influences of the compounds of the present invention on HT-29 cell proliferation were determined by the following method. HT-29 cells (containing TP53 R273H mutation) were purchased from the Cell Bank of Shanghai Institute of Biochemistry and Cell Biology, Chinese Academy of Sciences, and cultured in a McCOY's 5A culture medium containing 10% fetal bovine serum, 100 U penicillin and 100 μg/mL streptomycin. A cell viability was determined by a CellTiter-Glo® Luminescent Cell Viability Assay kit (Promega, article number G7573).
(§1) An experimental method was operated according to steps in the instruction of the kit, which was briefly described as follows: a test compound was dissolved in DMSO first to prepare a 10 mM stock solution, then the stock solution was diluted with the above McCOY's 5A culture medium to prepare a test sample, and a final concentration of the compound was in a range of 1000 nM-0.015 nM. Cells in a logarithmic growth phase were inoculated into a 96-well cell culture plate at a density of 1000 cells per well, cultured in a 5% CO2 incubator at 37° C. overnight, and then the test compound was added to continuously culture for 120 hours. After the culture was ended, 50 µL of CellTiter-Glo detection solution was added to each well, the plates were shaken for 5 minutes, and then allowed to stand for 10 minutes, and subsequently, a luminous value of each well of sample was read by a microplate reader in a Luminescence mode. By comparing with a numerical value of a control group (0.3% DMSO), a percentage inhibition rate of the compound at each concentration was calculated, and then nonlinear regression analysis was carried out based on concentration logarithm-inhibition rate of the compound in GraphPad Prism 5 software, so as to obtain an IC50 value of the compound in inhibition on cell proliferation, which are shown in Table 2.
A general note: ATP-based viability assays read luminescence as a measure of living cells.

Another data set deals with OVCAR-3 cells. Briefly: Inhibition on OVCAR-3 cell proliferation (CellTiter-Glo). Particulars: Homo sapiens, OVCAR-3 cells (TP53 R248Q mutation), 72 hours. It counts as cell-based. How it is done: Influences of the compounds of the present invention on OVCAR-3 cell proliferation were determined by the following method. OVCAR-3 cells (containing TP53 R248Q mutation) were purchased from the Cell Bank of Shanghai Institute of Biochemistry and Cell Biology, Chinese Academy of Sciences, and cultured in an RPMI 1640 culture medium containing […], 100 U penicillin and 100 μg/mL streptomycin. A cell viability was determined by a CellTiter-Glo® Luminescent Cell Viability Assay kit (Promega, article number G7573).
as §1, with “RPMI 1640” for “McCOY's 5A”, “72” for “120”, “μL” for “µL”, “1.” for “2.”

Structures are written as SMILES.

T1 sequence (Q8NI77 whole entry): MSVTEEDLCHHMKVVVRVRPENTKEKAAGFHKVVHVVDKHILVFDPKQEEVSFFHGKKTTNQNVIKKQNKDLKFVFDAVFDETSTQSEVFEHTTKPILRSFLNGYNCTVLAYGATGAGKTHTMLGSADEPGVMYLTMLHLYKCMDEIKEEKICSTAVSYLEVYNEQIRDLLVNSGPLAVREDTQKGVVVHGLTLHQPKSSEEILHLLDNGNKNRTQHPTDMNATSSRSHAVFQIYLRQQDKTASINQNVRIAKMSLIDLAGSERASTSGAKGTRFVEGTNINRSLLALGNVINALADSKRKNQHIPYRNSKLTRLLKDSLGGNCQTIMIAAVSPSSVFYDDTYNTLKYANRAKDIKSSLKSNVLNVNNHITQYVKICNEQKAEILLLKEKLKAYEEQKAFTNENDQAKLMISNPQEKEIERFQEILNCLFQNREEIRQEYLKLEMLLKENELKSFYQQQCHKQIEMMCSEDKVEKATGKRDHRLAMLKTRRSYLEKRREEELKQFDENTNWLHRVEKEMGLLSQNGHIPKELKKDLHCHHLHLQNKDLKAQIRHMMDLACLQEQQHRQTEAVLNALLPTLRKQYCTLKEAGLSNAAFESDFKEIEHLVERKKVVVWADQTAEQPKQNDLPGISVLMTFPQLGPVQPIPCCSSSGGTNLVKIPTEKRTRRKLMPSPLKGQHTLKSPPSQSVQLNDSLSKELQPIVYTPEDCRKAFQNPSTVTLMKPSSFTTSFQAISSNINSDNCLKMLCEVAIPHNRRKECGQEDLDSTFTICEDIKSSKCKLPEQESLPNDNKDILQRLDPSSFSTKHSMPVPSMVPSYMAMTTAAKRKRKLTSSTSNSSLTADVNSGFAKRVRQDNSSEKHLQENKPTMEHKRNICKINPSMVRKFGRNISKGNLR
T1 sequence (P68363 whole entry partner): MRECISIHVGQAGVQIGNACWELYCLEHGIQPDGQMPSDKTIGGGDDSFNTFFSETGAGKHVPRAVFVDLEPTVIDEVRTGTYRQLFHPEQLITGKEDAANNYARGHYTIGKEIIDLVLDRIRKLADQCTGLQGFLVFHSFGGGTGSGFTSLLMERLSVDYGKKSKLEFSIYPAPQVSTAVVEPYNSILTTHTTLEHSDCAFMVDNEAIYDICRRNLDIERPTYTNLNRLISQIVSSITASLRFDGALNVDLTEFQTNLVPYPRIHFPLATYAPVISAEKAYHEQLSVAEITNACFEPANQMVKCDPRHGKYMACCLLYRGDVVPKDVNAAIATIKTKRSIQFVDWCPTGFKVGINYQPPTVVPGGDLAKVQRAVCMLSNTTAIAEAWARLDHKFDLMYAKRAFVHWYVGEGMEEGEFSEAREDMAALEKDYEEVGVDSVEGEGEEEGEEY
T1 sequence (Q9BVA1 whole entry partner): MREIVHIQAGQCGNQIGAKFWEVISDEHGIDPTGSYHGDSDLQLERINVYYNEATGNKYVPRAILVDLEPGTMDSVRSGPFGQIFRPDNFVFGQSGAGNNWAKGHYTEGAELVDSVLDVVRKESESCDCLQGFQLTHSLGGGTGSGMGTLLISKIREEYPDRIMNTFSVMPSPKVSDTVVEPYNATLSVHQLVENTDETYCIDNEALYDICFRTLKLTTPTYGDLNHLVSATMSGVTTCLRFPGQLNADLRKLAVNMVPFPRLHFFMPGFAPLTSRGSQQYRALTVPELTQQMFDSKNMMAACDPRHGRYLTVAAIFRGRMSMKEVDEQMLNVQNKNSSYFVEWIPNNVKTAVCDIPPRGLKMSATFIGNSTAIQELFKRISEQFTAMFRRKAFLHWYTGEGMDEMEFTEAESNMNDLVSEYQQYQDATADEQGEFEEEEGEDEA

As a reminder, the IC50 is the point on the concentration scale where inhibition reaches its midpoint. For orientation: half-life means the time needed for the level to fall by half in the phase considered. As for `O=C(Nc1cc2c(c(N3CCC(F)(F)CC3)c1)OCC2)c1ccc(NS(=O)(=O)CCO)cc1N1CCC2(CC1)CC2` [Example 29, N-(7-(4,4-difluoropiperidin-1-yl)-2,3-dihydrobenzofuran-5-yl)-4-((2-hydroxyethyl)sulfamine)-2-(6-azaspiro[2.5]octan-6-yl)benzamide], the concentration for half-maximal inhibition (IC50) on recombinant human KIF18A worked out at 316 nM. In data set [1] (10 mg/kg, oral administration (10 mg/mL), read-out: Half-life period T½ (converted)), the half-life was 1.24 h. In data set [1] (10 mg/kg, oral administration (10 mg/mL), read-out: Plasma concentration Cmax), the Cmax stood at 6960 ng/mL. Also, the AUC(0-inf) in data set [1] (oral administration (10 mg/kg), read-out: Area under the curve AUC0-∞) worked out at 25900 ng·h/mL.

One may read the TGI as the reduction of tumour growth relative to the control group. A higher TGI goes with a stronger effect on the tumour. Take `Cc1cc(NC(=O)c2ccc(NS(=O)(=O)CCO)cc2N2CCC3(CC2)CC3)nc(N2CCC(F)(F)CC2)n1` [AMG 650, reference compound]: in data set [2] (4 mg/kg po QD), the inhibition of tumour growth (TGI) came to 15.3% and the “Tumor volume (x ± S)” value is on record as 511 ± 49. Moreover, in data set [2] (8 mg/kg po QD), the inhibition of tumour growth (TGI) worked out at 60.5% and the “Tumor volume (x ± S)” value was 243 ± 35.

With `O=C(Nc1cc2c(c(N3CCC(F)(F)CC3)c1)OCC2)c1ccc(NS(=O)(=O)C2CC2)cc1N1CCC2(CC1)CC2` [Example 7, 4-(cyclopropanesulfonamido)-N-(7-(4,4-difluoropyridin-1-yl)-2,3-dihydrobenzofuran-5-yl)-2-(6-azaspiro[2.5]octan-6-yl)benzamide], the half-maximal inhibitory concentration (IC50) at recombinant human KIF18A was determined as 157 nM; with HT-29 cells it was 7.8 nM; in the data set on OVCAR-3 cells it was 11 nM.

`CCS(=O)(=O)Nc1ccc(C(=O)Nc2cc3c(c(N4CCC(F)(F)CC4)c2)C(=O)N(C)C3)c(N2CCC3(CC2)CC3)c1` [Example 2, N-(7-(4,4-difluoropiperidin-1-yl)-2-methyl-1-oxoisoindolin-5-yl)-4-(ethylsulfonamido)-2-(6-azaspiro[2.5]octan-6-yl)benzamide]: the IC50 amounted to 142 nM at recombinant human KIF18A, 3.9 nM in the data set on HT-29 cells and 4.3 nM in the data set on OVCAR-3 cells.

As to `CCS(=O)(=O)Nc1ccc(C(=O)Nc2cc3c(c(N4CCC(F)(F)CC4)c2)OCO3)c(N2CCC3(CC2)CC3)c1` [Example 13, N-(7-(4,4-difluoropiperidin-1-yl)benzo[d][1,3]dioxol-5-yl)-4-(ethylsulfonamido)-2-(6-azaspiro[2.5]octan-6-yl)benzamide], the half-inhibitory concentration (IC50) is 291 nM at recombinant human KIF18A, 7.3 nM with HT-29 cells and 5.5 nM in the data set on OVCAR-3 cells.

With `CN1Cc2cc(NC(=O)c3ccc(NS(=O)(=O)CCO)cc3N3CCC4(CC3)CC4)cc(N3CCC(F)(F)CC3)c2C1=O` [Example 28, N-(7-(4,4-difluoropiperidin-1-yl)-2-methyl-1-oxoisoindolin-5-yl)-4-((2-hydroxyethyl)sulfamine)-2-(6-azaspiro[2.5]octan-6-yl)benzamide], the IC50 at recombinant human KIF18A is 142 nM; with HT-29 cells it was 18.9 nM; in the data set with OVCAR-3 cells, 6.8 nM.

As for `CCS(=O)(=O)Nc1ccc(C(=O)Nc2cc(N3CC(F)(F)C3)c3nn(C)cc3c2)c(N2CCC3(CC2)CC3)c1` [Example 24, N-(7-(3,3-difluoroazetidin-1-yl)-2-methyl-2H-indazol-5-yl)-4-(ethylsulfonamido)-2-(6-azaspiro[2.5]octan-6-yl)benzamide], the IC50 at recombinant human KIF18A is 85.7 nM; in the data set on HT-29 cells, 4.1 nM; with OVCAR-3 cells, 13.4 nM.
